Data set [1] relates to human embryonic stem cell derived neural stem cells (NSCs). The data set is described as follows: Neural Stem Cell Proliferation Assay (neurogenesis assay, ATP levels by CellTiterGlo). The class given is cell-based. The following applies: 96 h, compound concentration at which 150% activity of control (100%) is reached, NSC proliferation by ATP level after 4 days incubation, dose response 8 μM to 8 nM. The procedure, abridged:
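Read-out is CellTiterGlo ATP luminescence after 4-day culture (37 °C, 5% CO2) of dual-SMAD-derived human ESC NSCs, dosed 4 h post-seeding at 8 μM to 8 nM (11 points, 2-fold). EC150 marks the concentration reaching 150% of the media-only control (0.25% DMSO).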
(In ATP-based viability assays light output follows the ATP content of the culture.)

As a reminder, the melting point is the temperature of the solid-liquid transition.

In turn, `Cc1c2n(c3c(-c4cc(F)cc(F)c4)cc(C#N)cc13)CCCNC2=O` [Example 290, 7-(3,5-Difluorophenyl)-11-methyl-1-oxo-2,3,4,5-tetrahydro-[1,4]diazepino[1,2-a]indole-9-carbonitrile] yielded a melting point of 265 °C. For the same compound, the EC (150% of control) in data set [1] was found to be 0.29 µM.
Turning to `Cc1c2n(c3c(-c4ccc(F)nc4)cc(C#N)cc13)CCNC2=O` [Example 169, 6-(6-Fluoro-pyridin-3-yl)-10-methyl-1-oxo-1,2,3,4-tetrahydro-pyrazino[1,2-a]indole-8-carbonitrile], the melting point amounted to 272 °C. The compound further showed an EC (150% of control) in data set [1] of 0.066 µM.
The corresponding values for `N#Cc1cc(-c2ccc(Cl)c(Cl)c2)c2c(c1)cc1n2CCCNC1=O` [Example 249, 7-(3,4-Dichlorophenyl)-1-oxo-2,3,4,5-tetrahydro-[1,4]diazepino[1,2-a]indole-9-carbonitrile] are 217.5 °C and 0.31 µM.
Taken in the same sequence, the figures for `COc1ccc(-c2cc(F)cc3cc4n(c23)CCCNC4=O)cc1` [Example 16, 9-Fluoro-7-(4-methoxy-phenyl)-2,3,4,5-tetrahydro-[1,4]diazepino[1,2-a]indol-1-one] were 225.5 °C and 0.009 µM.
Taken in the same sequence, the figures for `CC(C)(C)c1ccc(-c2cc(C#N)cc3cc4n(c23)CCNC4=O)cc1` [Example 230, 6-(4-tert-Butylphenyl)-1-oxo-3,4-dihydro-2H-pyrazino[1,2-a]indole-8-carbonitrile] were 300 °C and 0.14 µM.
For the compound `Cc1c2n(c3c(-c4cc(F)cc(F)c4)cc(F)cc13)CCNC2=O` [Example 84, 6-(3,5-Difluoro-phenyl)-8-fluoro-10-methyl-3,4-dihydro-2H-pyrazino[1,2-a]indol-1-one], the melting point was found to be 250 °C. This compound also had an EC (150% of control) in data set [1] of 0.15 µM.
The corresponding values for `N#Cc1cc(-c2ccc(C(F)(F)F)cc2)c2c(c1)cc1n2CCNC1=O` [Example 95, 1-Oxo-6-(4-trifluoromethyl-phenyl)-1,2,3,4-tetrahydro-pyrazino[1,2-a]indole-8-carbonitrile] are 359 °C and 0.018 µM.
The corresponding values for `Cc1c2n(c3c(-c4cccnc4)cc(C#N)cc13)CCNC2=O` [Example 282, 10-Methyl-1-oxo-6-pyridin-3-yl-3,4-dihydro-2H-pyrazino[1,2-a]indole-8-carbonitrile] are 273 °C and 0.96 µM.
The corresponding values for `N#Cc1cc(-c2cncnc2)c2c(c1)cc1n2CCNC1=O` [Example 225, 1-Oxo-6-pyrimidin-5-yl-3,4-dihydro-2H-pyrazino[1,2-a]indole-8-carbonitrile] are 323.5 °C and 1.75 µM.
As for `Cc1c2n(c3c(-c4ccc(C(F)(F)F)cc4)cc(F)cc13)CCNC2=O` [Example 82, 8-Fluoro-10-methyl-6-(4-trifluoromethyl-phenyl)-3,4-dihydro-2H-pyrazino[1,2-a]indol-1-one], the melting point stood at 269.5 °C. In data set [1], this compound showed an EC (150% of control) of 0.036 µM.
Taken in the same sequence, the figures for `Cc1cc(-c2ccc(F)c(F)c2)c2c(c1)cc1n2CCNC1=O` [Example 60, 6-(3,4-Difluoro-phenyl)-8-methyl-3,4-dihydro-2H-pyrazino[1,2-a]indol-1-one] were 249.5 °C and 0.71 µM.
Taken in the same sequence, the figures for `Cc1c2n(c3c(-c4ccc(N)nc4)cc(Cl)cc13)CCNC2=O` [Example 161, 6-(6-Amino-pyridin-3-yl)-8-chloro-10-methyl-3,4-dihydro-2H-pyrazino[1,2-a]indol-1-one] were 250 °C and 0.27 µM.
The corresponding values for `N#Cc1cc(-c2ccc(Cl)c(C(F)(F)F)c2)c2c(c1)cc1n2CCNC1=O` [Example 204, 6-[4-Chloro-3-(trifluoromethyl)phenyl]-1-oxo-3,4-dihydro-2H-pyrazino[1,2-a]indole-8-carbonitrile] are 347 °C and 1.28 µM.
Regarding `COc1ccc(-c2cc(Cl)cc3c(C)c4n(c23)CCNC4=O)cn1` [Example 111, 8-Chloro-6-(6-methoxy-pyridin-3-yl)-10-methyl-3,4-dihydro-2H-pyrazino[1,2-a]indol-1-one], the melting point stood at 196 °C. For the same compound, in data set [1], the EC (150% of control) is 0.015 µM.
The corresponding values for `Cc1c2n(c3c(-c4ccc([N+](=O)[O-])cc4)cc(Cl)cc13)CCNC2=O` [Example 109, 8-Chloro-10-methyl-6-(4-nitro-phenyl)-3,4-dihydro-2H-pyrazino[1,2-a]indol-1-one] are 313.5 °C and 0.007 µM.
The corresponding values for `N#Cc1cc(-c2ccc(N)nc2)c2c(c1)cc1n2CCNC1=O` [Example 224, 6-(6-Aminopyridin-3-yl)-1-oxo-3,4-dihydro-2H-pyrazino[1,2-a]indole-8-carbonitrile] are 305 °C and 0.76 µM.
The corresponding values for `Cc1c2n(c3c(-c4ccc(C#N)cc4)cc(F)cc13)CCNC2=O` [Example 124, 4-(8-Fluoro-10-methyl-1-oxo-1,2,3,4-tetrahydro-pyrazino[1,2-a]indol-6-yl)-benzonitrile] are 295 °C and 0.023 µM.
In turn, `Cc1cc(-c2ccc(F)c(F)c2)c2c(c1)cc1n2CCCNC1=O` [Example 55, 7-(3,4-Difluoro-phenyl)-9-methyl-2,3,4,5-tetrahydro-[1,4]diazepino[1,2-a]indol-1-one] yielded a melting point of 231 °C. The compound also gave an EC (150% of control) in data set [1] of 2.8 µM.
`N#Cc1cc(-c2ccc(CO)cc2)c2c(c1)cc1n2CCCNC1=O` [Example 266, 7-[4-(Hydroxymethyl)phenyl]-1-oxo-2,3,4,5-tetrahydro-[1,4]diazepino[1,2-a]indole-9-carbonitrile] yielded a melting point of 256.5 °C. Besides, the EC (150% of control) in data set [1] worked out at 0.93 µM.
Taken in the same sequence, the figures for `N#Cc1cc(-c2cccc(F)c2)c2c(c1)cc1n2CCCNC1=O` [Example 239, 7-(3-Fluorophenyl)-1-oxo-2,3,4,5-tetrahydro-[1,4]diazepino[1,2-a]indole-9-carbonitrile] were 210.5 °C and 0.61 µM.
Taken in the same sequence, the figures for `Cc1c2n(c3c(-c4ccc(Cl)cc4F)cc(C#N)cc13)CCNC2=O` [Example 180, 6-(4-Chloro-2-fluoro-phenyl)-10-methyl-1-oxo-1,2,3,4-tetrahydro-pyrazino[1,2-a]indole-8-carbonitrile] were 270 °C and 0.008 µM.
The corresponding values for `Cc1ccc(-c2cc(Cl)cc3c(C)c4n(c23)CCNC4=O)cc1` [Example 89, 8-Chloro-10-methyl-6-p-tolyl-3,4-dihydro-2H-pyrazino[1,2-a]indol-1-one] are 251.5 °C and 0.01 µM.
As to `Cc1c2n(c3c(-c4ccc(F)c(F)c4)cc(F)cc13)CCNC2=O` [Example 72, 6-(3,4-Difluoro-phenyl)-8-fluoro-10-methyl-3,4-dihydro-2H-pyrazino[1,2-a]indol-1-one], the melting point turned out to be 229.5 °C. Also, the EC (150% of control) in data set [1] came to 0.12 µM.

The record behind these values is patent US9284321B2, “Piperazino[1,2-a]indol-1-ones and [1,4]diazepino[1,2-a]indol-1-one” (Hoffmann-La Roche Inc., priority 2012, dated 2016).
